According to US9085555B2, “Complement pathway modulators and uses thereof” (priority 2011, dated 2015):
Where a name gives a salt, the structure may show the parent alone. Read-outs that look alike come from different tables or passages of the source.

Molecular target: Factor D (Homo sapiens (Human), UniProt P00746)
Test: biochemical
Assay type: biochemical

Sequence of Factor D (P00746 26-253): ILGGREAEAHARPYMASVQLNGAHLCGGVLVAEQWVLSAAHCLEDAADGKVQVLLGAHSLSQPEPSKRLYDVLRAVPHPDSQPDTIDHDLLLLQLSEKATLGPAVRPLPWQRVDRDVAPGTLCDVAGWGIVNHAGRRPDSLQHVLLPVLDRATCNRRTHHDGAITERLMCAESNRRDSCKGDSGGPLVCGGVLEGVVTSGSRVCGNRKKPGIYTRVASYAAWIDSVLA

Q: `CC(=O)c1cn(CC(=O)N2C[C@@](F)(CN)C[C@H]2C(=O)NCc2cccc(Cl)c2F)c2ccccc12` [Example 607, (2S,4S)-1-[2-(3-Acetyl-indol-1-yl)-acetyl]-4-aminomethyl-4-fluoro-pyrrolidine-2-carboxylic acid 3-chloro-2-fluoro-benzylamide] was tested. Which IC50 (read-out: IC50) did it give?
A: 28 nM

Q: With `CN[C@H]1C[C@@H](C(=O)NCc2cccc(Cl)c2F)N(C(=O)Cn2cc(C(C)=O)c3ccccc32)C1` [Example 608, (2S,4S)-1-[2-(3-Acetyl-indol-1-yl)-acetyl]-4-methylamino-pyrrolidine-2-carboxylic acid 3-chloro-2-fluoro-benzylamide] as the compound, how does the IC50 (read-out: IC50) read?
A: 1840 nM

Q: For `COCCN[C@H]1C[C@@H](C(=O)NCc2cccc(Cl)c2F)N(C(=O)Cn2cc(C(C)=O)c3ccccc32)C1` [Example 609, (2S,4S)-1-[2-(3-Acetyl-indol-1-yl)-acetyl]-4-(2-methoxy-ethylamino)-pyrrolidine-2-carboxylic acid 3-chloro-2-fluoro-benzylamide], which IC50 (read-out: IC50) is on record?
A: 1560 nM

Q: How did the IC50 (read-out: IC50) turn out when `CC(=O)c1cn(CC(=O)N2[C@H](C(=O)NCc3cccc(Cl)c3F)C[C@@]3(CO)C[C@@H]23)c2ccccc12` [Example 611, (1R,3S,5S)-2-[2-(3-Acetyl-indol-1-yl)-acetyl]-5-hydroxymethyl-2-aza-bicyclo[3.1.0]hexane-3-carboxylic acid 3-chloro-2-fluoro-benzylamide] was run?
A: 141 nM

Q: How did the IC50 (read-out: IC50) turn out when `CC(=O)c1cn(CC(=O)N2C[C@@H]3C[C@@H]3[C@H]2C(=O)N[C@H](CO)c2cccc(Cl)c2F)c2ccccc12` [Example 612, (1S,2S,5R)-3-[2-(3-Acetyl-indol-1-yl)-acetyl]-3-aza-bicyclo[3.1.0]hexane-2-carboxylic acid [(S)-1-(3-chloro-2-fluoro-phenyl)-2hydroxy-ethyl]-amide] was run?
A: 3430 nM

Q: With `CC(=O)c1cn(CC(=O)N2[C@@H]3C[C@@H]3C[C@H]2C(=O)N[C@H](CO)c2cccc(Cl)c2F)c2ncccc12` [Example 613, (1R,3S,5R)-2-[2-(3-Acetyl-pyrrolo[2,3-b]pyridin-1-yl)-acetyl]-2-aza-bicyclo[3.1.0]hexane-3-carboxylic acid [(S)-1-(3-chloro-2-fluoro-phenyl)-2-hydroxy-ethyl]-amide] as the compound, how does the IC50 (read-out: IC50) read?
A: 215 nM

Q: How did the IC50 (read-out: IC50) turn out when `CC(=O)c1cn(CC(=O)N2C[C@](C)(F)C[C@H]2C(=O)N[C@H](CO)c2cccc(Cl)c2F)c2ncccc12` [Example 614, (2S,4R)-1-[2-(3-Acetyl-pyrrolo[2,3-b]pyridin-1-yl)-acetyl]-4-fluoro-4-methyl-pyrrolidine-2-carboxylic acid [(S)-1-(3-chloro-2-fluoro-phenyl)-2-hydroxy-ethyl]-amide] was run?
A: 245 nM

Q: `CC(=O)c1cn(CC(=O)N2[C@@H]3C[C@@H]3C[C@H]2C(=O)NCc2cccc(Cl)c2F)c2ccc(C(=N)N(C)C)cc12` [Example 615, (1R,3S,5R)-2-{2-[3-Acetyl-5-(N,N-dimethyl-carbamimidoyl)-indol-1-yl]-acetyl}-2-aza-bicyclo[3.1.0]hexane-3-carboxylic acid 3-chloro-2-fluoro-benzylamide] was tested. Which IC50 (read-out: IC50) did it give?
A: 42 nM

Q: `CC(=O)c1cn(CC(=O)N2[C@@H]3C[C@@H]3C[C@H]2C(=O)NCc2cccc(Cl)c2F)c2cc(C(=N)N(C)C)ccc12` [Example 616, (1R,3S,5R)-2-{2-[3-Acetyl-6-(N,N-dimethyl-carbamimidoyl)-indol-1-yl]-acetyl}-2-aza-bicyclo[3.1.0]hexane-3-carboxylic acid 3-chloro-2-fluoro-benzylamide] was tested. Which IC50 (read-out: IC50) did it give?
A: 123 nM

Q: `CC(=O)c1cn(CC(=O)N2C[C@H](F)C[C@H]2C(=O)NCc2cccc(Cl)c2F)c2cc(-c3nnn[nH]3)ccc12` [Example 617, (2S,4R)-1-{2-[3-Acetyl-6-(1H-tetrazol-5-yl)-indol-1-yl]-acetyl}-4-fluoro-pyrrolidine-2-carboxylic acid 3-chloro-2-fluoro-benzylamide] was tested. Which IC50 (read-out: IC50) did it give?
A: 28 nM

Q: Which IC50 (read-out: IC50) does the source give for `CC(=O)c1cn(CC(=O)N2[C@@H]3C[C@@H]3C[C@H]2C(=O)NCc2cccc(Cl)c2F)c2cc(-c3nnn[nH]3)ccc12` [Example 618, (1R,3S,5R)-2-{2-[3-Acetyl-6-(1H-tetrazol-5-yl)-indol-1-yl]-acetyl}-2-aza-bicyclo[3.1.0]hexane-3-carboxylic acid 3-chloro-2-fluoro-benzylamide] here?
A: 39 nM

Q: For `[2H]C([2H])([2H])C(=O)c1cn(CC(=O)N2C[C@H](F)[C@@H](OC)[C@H]2C(=O)NCc2cccc(Cl)c2F)c2ccccc12` [Example 619, (2S,3S,4S)-1-[2-(3-Acetyl-d3-indol-1-yl)-acetyl]-4-fluoro-3-methoxy-pyrrolidine-2-carboxylic acid 3-chloro-2-fluoro-benzylamide], which IC50 is on record?
A: 14 nM

Q: With `[2H]C([2H])([2H])O[C@H]1[C@@H](C(=O)NCc2cccc(Cl)c2F)N(C(=O)Cn2cc(C(C)=O)c3ccccc32)C[C@@H]1F` [Example 620, (2S,3S,4S)-1-[2-(3-Acetyl-indol-1-yl)-acetyl]-4-fluoro-3-methoxy-d3-pyrrolidine-2-carboxylic acid 3-chloro-2-fluoro-benzylamide] as the compound, how does the IC50 read?
A: 17 nM

Q: For `CC(=O)c1nc(CC(=O)N2[C@@H]3C[C@@H]3C[C@H]2C(=O)NCc2cccc(Cl)c2F)n2ccccc12` [Example 621, (1R,3S,5R)-2-[2-(1-Acetyl-imidazo[1,5-a]pyridin-3-yl)-acetyl]-2-aza-bicyclo[3.1.0]hexane-3-carboxylic acid 3-chloro-2-fluoro-benzylamide], which IC50 (read-out: IC50) is on record?
A: 19 nM

Q: For `CC(=O)c1cn(CC(=O)N2[C@H](CNC(=O)Oc3cccc(Cl)c3F)C[C@H]3C[C@H]32)c2ccccc12` [Example 622, {(1R,3S,5R)-2-[2-(3-Acetyl-indol-1-yl)-acetyl]-2-aza-bicyclo[3.1.0]hex-3-ylmethyl}-carbamic acid 3-chloro-2-fluoro-phenyl ester], which IC50 (read-out: IC50) is on record?
A: 5600 nM

Q: How did the IC50 (read-out: IC50) turn out when `CC(=O)c1nn(CC(=O)N2C[C@H](F)C[C@H]2C(=O)NCc2cccc(Cl)c2F)c2cnccc12` [Example 623, (2S,4R)-1-[2-(3-Acetyl-pyrazolo[3,4-c]pyridin-1-yl)-acetyl]-4-fluoro-pyrrolidine-2-carboxylic acid 3-chloro-2-fluoro-benzylamide formate] was run?
A: 24 nM

Q: `CO[C@H]1[C@@H](C(=O)N[C@H](C)c2cccc(Cl)c2F)N(C(=O)Cn2nc(C(C)=O)c3cccnc32)C[C@@H]1F` [Example 624, (2S,3S,4S)-1-[2-(3-Acetyl-pyrazolo[3,4-b]pyridin-1-yl)-acetyl]-4-fluoro-3-methoxy-pyrrolidine-2-carboxylic acid [(R)-1-(3-chloro-2-fluoro-phenyl)-ethyl]-amide] was tested. Which IC50 (read-out: IC50) did it give?
A: 26 nM

Q: Which IC50 (read-out: IC50) does the source give for `CC(=O)c1nn(CC(=O)N2C[C@@H]3C[C@@H]3[C@H]2C(=O)NCc2cccc(Cl)c2F)c2cnc(C)cc12` [Example 625, (1S,2S,5R)-3-[2-(3-Acetyl-5-methyl-pyrazolo[3,4-c]pyridin-1-yl)-acetyl]-3-aza-bicyclo [3.1.0]hexane-2-carboxylic acid 3-chloro-2-fluoro-benzylamide] here?
A: 19 nM

Q: For `CC(=O)c1nn(CC(=O)N2C[C@H](F)C[C@H]2C(=O)NCc2cccc(Cl)c2F)c2cnc(C)cc12` [Example 626, (2S,4R)-1-[2-(3-Acetyl-5-methyl-pyrazolo[3,4-c]pyridin-1-yl)-acetyl]-4-fluoro-pyrrolidine-2-carboxylic acid 3-chloro-2-fluoro-benzylamide], which IC50 (read-out: IC50) is on record?
A: 36 nM

Q: For `CC(=O)c1nn(CC(=O)N2[C@@H]3C[C@@H]3C[C@H]2C(=O)NCc2cccc(Cl)c2F)c2cnccc12` [Example 627, (1R,3S,5R)-2-[2-(3-Acetyl-pyrazolo[3,4-c]pyridin-1-yl)-acetyl]-2-aza-bicyclo [3.1.0]hexane-3-carboxylic acid 3-chloro-2-fluoro-benzylamide], which IC50 (read-out: IC50) is on record?
A: 16 nM

Q: `CO[C@H]1[C@@H](C(=O)Nc2cccc(OC(F)(F)F)c2F)N(C(=O)Cn2nc(C(N)=O)c3ccccc32)C[C@@H]1F` [Example 628, 1-{2-[(2S,3S,4S)-4-Fluoro-2-(2-fluoro-3-trifluoromethoxy-phenylcarbamoyl)-3-methoxy-pyrrolidin-1-yl]-2-oxo-ethyl}-1H-indazole-3-carboxylic acid amide] was tested. Which IC50 (read-out: IC50) did it give?
A: 38 nM

Q: With `CO[C@H]1[C@@H](C(=O)Nc2cccc(OC(F)(F)F)c2F)N(C(=O)Cn2nc(C(N)=O)c3ccncc32)C[C@@H]1F` [Example 629, 1-{2-[(2S,3S,4S)-4-Fluoro-2-(2-fluoro-3-trifluoromethoxy-phenylcarbamoyl)-3-methoxy-pyrrolidin-1-yl]-2-oxo-ethyl}-1H-pyrazolo[3,4-c]pyridine-3-carboxylic acid amide trifluoroacetate] as the compound, how does the IC50 (read-out: IC50) read?
A: 17 nM

Q: Which IC50 (read-out: IC50) does the source give for `CO[C@H]1[C@@H](C(=O)NCc2cccc(Cl)c2F)N(C(=O)Cn2nc(C(C)=O)c3cnccc32)C[C@@H]1F` [Example 630, (2S,3S,4S)-1-[2-(3-Acetyl-pyrazolo[4,3-c]pyridin-1-yl)-acetyl]-4-fluoro-3-methoxy-pyrrolidine-2-carboxylic acid 3-chloro-2-fluoro-benzylamide] here?
A: 36 nM

Q: For `CO[C@H]1[C@@H](C(=O)NC2(c3cccc(Cl)c3F)CC2)N(C(=O)Cn2nc(C(C)=O)c3ccncc32)C[C@@H]1F` [Example 631, (2S,3S,4S)-1-[2-(3-Acetyl-pyrazolo[3,4-c]pyridin-1-yl)-acetyl]-4-fluoro-3-methoxy-pyrrolidine-2-carboxylic acid [1-(3-chloro-2-fluoro-phenyl)-cyclopropyl]-amide], which IC50 (read-out: IC50) is on record?
A: 11 nM

Q: For `COC(=O)c1ccc2c(C(C)=O)nn(CC(=O)N3[C@@H]4C[C@@H]4C[C@H]3C(=O)NCc3cccc(Cl)c3F)c2c1` [Example 632, 3-Acetyl-1-{2-[(1R,3S,5R)-3-(3-chloro-2-fluoro-benzylcarbamoyl)-2-aza-bicyclo [3.1.0]hex-2-yl]-2-oxo-ethyl}-1H-indazole-6-carboxylic acid methyl ester], which IC50 (read-out: IC50) is on record?
A: 18 nM

Q: With `CC(=O)c1nn(CC(=O)N2[C@@H]3C[C@@H]3C[C@H]2C(=O)NC2(c3cccc(Cl)c3F)COC2)c2ncccc12` [Example 633, (1R,3S,5R)-2-[2-(3-Acetyl-pyrazolo[3,4-b]pyridin-1-yl)-acetyl]-2-aza-bicyclo [3.1.0]hexane-3-carboxylic acid [3-(3-chloro-2-fluoro-phenyl)-oxetan-3-yl]-amide] as the compound, how does the IC50 (read-out: IC50) read?
A: 55 nM

Q: `CC(=O)c1cn(CC(=O)N2C[C@H](F)[C@@H](OCCN(C)C)[C@H]2C(=O)NCc2cccc(Cl)c2F)c2ccccc12` [Example 634, (2S,3S,4S)-1-[2-(3-Acetyl-indol-1-yl)-acetyl]-3-(2-dimethylamino-ethoxy)-4-fluoro-pyrrolidine-2-carboxylic acid 3-chloro-2-fluoro-benzylamide formate] was tested. Which IC50 (read-out: IC50) did it give?
A: 53 nM
